Consider seven compounds from patent publication US20120071536A1, “N-[(2-AZABICYCLO[2.1.1]HEX-1-YL)-ARYL-METHYL]-BENZAMIDE DERIVATIVES, PREPARATION THEREOF, AND THERAPEUTIC USE THEREOF” (SANOFI, priority 2009, published 2012).

Counter-ions that a name gives are not always drawn.

Data set [1] deals with T1, native human transporter GlyT1 (Homo sapiens, UniProt P48067).
T1 construct: expressing the native human transporter GlyT1; endogenous in cells; host or cells: SK-N-MC cells (human neuroepithelial cells)
T1 sequence (P48067 1-706): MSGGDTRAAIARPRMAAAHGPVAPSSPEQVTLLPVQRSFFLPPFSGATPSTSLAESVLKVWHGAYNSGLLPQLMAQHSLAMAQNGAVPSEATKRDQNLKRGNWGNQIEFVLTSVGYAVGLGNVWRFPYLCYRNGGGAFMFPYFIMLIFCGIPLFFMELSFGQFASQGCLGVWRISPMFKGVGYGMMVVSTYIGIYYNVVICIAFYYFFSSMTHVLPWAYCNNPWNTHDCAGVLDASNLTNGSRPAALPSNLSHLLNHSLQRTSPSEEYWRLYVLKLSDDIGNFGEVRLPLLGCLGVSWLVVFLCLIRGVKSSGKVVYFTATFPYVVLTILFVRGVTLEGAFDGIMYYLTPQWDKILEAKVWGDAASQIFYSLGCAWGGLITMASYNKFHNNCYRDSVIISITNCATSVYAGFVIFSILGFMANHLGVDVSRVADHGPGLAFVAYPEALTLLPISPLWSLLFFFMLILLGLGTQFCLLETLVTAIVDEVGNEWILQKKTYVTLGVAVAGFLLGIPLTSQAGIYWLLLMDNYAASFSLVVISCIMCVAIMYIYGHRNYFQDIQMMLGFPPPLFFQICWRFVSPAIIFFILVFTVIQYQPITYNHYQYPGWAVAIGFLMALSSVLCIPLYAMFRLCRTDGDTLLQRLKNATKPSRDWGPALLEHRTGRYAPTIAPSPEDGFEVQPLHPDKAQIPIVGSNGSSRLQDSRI
Description: Uptake of [14C]glycine in SK-N-MC cells expressing the native human transporter GlyT1. The format is cell-based. Particulars: 10 μM [14C]glycine, 10 min at 37° C., pH 7.4, read-out: IC50 (concentration of the compound which reduces by 50% the specific uptake of glycine). On the procedure: Study of Glycine Transportation in SK-N-MC Cells Expressing the Native Human Transporter GlyT1.
The uptake of [^14C]glycine is studied in SK-N-MC cells (human neuroepithelial cells) expressing the native human transporter GlyT1 by measuring the radioactivity incorporated in the presence or absence of the test compound. The cells are cultured as a monolayer for 48 hours in plates pretreated with 0.02% fibronectin. On the day of the experiment, the culture medium is removed and the cells are washed with Krebs-HEPES (4-(2-hydroxyethyl)piperazine-1-ethanesulphonic acid) buffer at pH 7.4. After preincubation for 10 minutes at 37° C. in the presence either of buffer (control batch) or of test compound at various concentrations or of 10 mM of glycine (determination of the non-specific uptake), 10 μM of [^14C]glycine (specific activity 112 mCi/mmol) are subsequently added. Incubation is continued for 10 min at 37° C. and the reaction is halted by washing twice with pH 7.4 Krebs-HEPES buffer. The radioactivity incorporated by the cells is then estimated after adding 100 μl of liquid scintillant and stirring for 1 h. Counting is carried out on a Microbeta Tri-Lux™ counter. The effectiveness of the compound is determined by the IC50, the concentration of the compound which reduces by 50% the specific uptake of glycine, defined by the difference in radioactivity incorporated by the control batch and the batch which received the 10 mM glycine.

Broadly, the melting point is the temperature, or range, at which the solid turns liquid.

For the compound `Nc1ccc(C(NC(=O)c2cccc(C(F)(F)F)c2Cl)C23CC(CN2)C3)cc1` (racemic) [Compound 1, N-[(4-Aminophenyl)(2-azabicyclo[2.1.1]hex-1-yl)methyl]-2-chloro-3-(trifluoromethyl)-benzamide], in data set [1], the IC50 worked out at 1100 nM.

Take `O=C(NC(c1ccccc1)C12CC(CN1)C2)c1cccc(C(F)(F)F)c1Cl` (racemic) [Compound 5, N-[(2-azabicyclo[2.1.1]hex-1-yl)(phenyl)methyl]-2-chloro-3-(trifluoromethyl)benzamide hydrochloride (1:1)]: the IC50 in data set [1] came out at 26 nM. In turn, `CSc1ccc(Cl)c(C(=O)NC(c2ccccc2)C23CC(CN2)C3)c1` (racemic) [Compound 11, N-[(2-Azabicyclo[2.1.1]hex-1-yl)(phenyl)methyl]-2-chloro-5-(methylsulphanyl)-benzamide] registered a melting point of 115 to 117 °C. The IC50 in data set [1] stood at 160 nM. The matching figures for `CN1CC2CC1(C(NC(=O)c1cccc(C(F)(F)F)c1Cl)c1ccccc1)C2.Cl` (racemic) [Compound 18, 2-Chloro-N-[(2-methyl-2-azabicyclo[2.1.1]hex-1-yl)(phenyl)methyl]-3-(trifluoromethyl)benzamide hydrochloride (1:1)]: 168.5 to 169.5 °C and 21 nM. In the case of `CC(C)(O)CN1CC2CC1(C(NC(=O)c1c(Cl)ccc(C(F)(F)F)c1Cl)c1ccccc1)C2` (racemic) [Compound 22], the IC50 in data set [1] came out at 110 nM.

`O=C(NC(c1ccccc1)C12CC(CN1CC(F)(F)F)C2)c1c(Cl)ccc(C(F)(F)F)c1Cl` (racemic) [Compound 23, 2,6-Dichloro-N-{(phenyl)[2-(2,2,2-trifluoroethyl)-2-azabicyclo[2.1.1]hex-1-yl]methyl}-3-(trifluoromethyl)benzamide] registered a melting point of 82 to 83 °C. In addition, the IC50 in data set [1] was determined as 300 nM.

As to `CCc1ccccc1C(=O)NC(c1ccccc1)C12CC(CN1CC)C2` (racemic) [Compound 31, 2-Ethyl-N-[(2-ethyl-2-azabicyclo[2.1.1]hex-1-yl)(phenyl)methyl]benzamide], the IC50 in data set [1] was determined as 1.6 nM.
